Measured values reported in patent US10813944B2, “Cyclodextrins as procoagulants” (STICHTING SANQUIN BLOEDVOORZIENING, priority 2016, dated 2020).

Assays:
[1] = tested on: thrombin generation in pooled normal plasma; test: Calibrated Automated Thrombogram thrombin generation assay in pooled normal plasma; format: biochemical, human; conditions: no anticoagulant; cyclodextrin 100 μM unless otherwise indicated; 1 pM TF
Procedure: (§1) FIGS. 3-8, 12, 14-19 and 22-27: Pooled normal plasma was spiked with cyclodextrins (100 μM, unless otherwise indicated) and anticoagulants. The concentrations of the anticoagulants were 100 ng/ml for dabigatran (A), 100 ng/ml for rivaroxaban (B), 60 ng/ml for apixaban (C), 60 ng/ml for edoxaban (D). The plasmas were subjected to thrombin generation analysis as described in the Materials and Methods section with 1 pM tissue factor (TF) as initiator of coagulation.
(§2) The Calibrated Automated Thrombogram® assays the generation of thrombin in clotting plasma using a microtiter plate reading fluorometer (Fluoroskan Ascent, ThermoLab systems, Helsinki, Finland) and Thrombinoscope® software (Thrombinoscope BV, Maastricht, The Netherlands). The assay was carried out as described by Hemker et al. (Pathofysiol. IIaemost. Thromb. 2003, 33, 4-15), and the Thrombinoscope® manual. Coagulation was triggered by recalcification in the presence of 1 or 5 pM recombinant human tissue factor (Innovin®, Siemens, Marburg, Germany), 4 μM phospholipids, and 417 μM fluorogenic substrate Z-Gly-Gly-Arg-AMC (Bachem, Bubendorf, Switzerland). Fluorescence was monitored using the Fluoroskan Ascent fluorometer (ThermoLabsystems, Helsinki, Finland), and the lag time, peak thrombin, velocity index and area under the curve (ETP) were calculated using the Thrombinoscope® software (Thrombinoscope BV).
Thrombin generation analyses were performed in pooled normal plasma with and without the addition of anticoagulants.

[2] = tested on: mice anticoagulated with rivaroxaban; test: In vivo saphenous vein bleeding model in mice anticoagulated with rivaroxaban
Procedure: FIG. 29: In vivo analysis of procoagulant potential of OK-1111 and OKL-1147. Except for controls, animals were treated with rivaroxaban for 4 days and cyclodextrins were administered 5 min prior bleeding assay.
All animal protocols were approved by the Institutional Animal Care and Use Committee of the University of North Carolina. C57BL6/J mice were purchased from Charles Rivers Laboratories (Willmington, Mass.). Bleeding studies were done essentially as previously described Pastoft et al. (Haemophilia 2012; 18:782-8). Mice were anesthetized with isoflurane throughout all procedures. The hair on the ventral side of both hind limbs was removed. The animals were placed supine on a temperature and ECG monitoring board. The paws were gently restrained by looping soft polyethylene tubing around them and attaching the tubing to the ECG board. The skin on the left and right ventral hind limb was incised which exposes a length of the saphenous neurovascular bundle; the bundle was covered with normal saline to prevent drying. To assess haemostasis, the right saphenous vein was transected by piercing it with a 23-G needle followed by a longitudinal incision made in the distal portion of the vessel. Blood was gently wicked away until haemostasis occurred. The clot was then removed to restart bleeding and the blood was again wicked away until haemostasis occurs again. Clot disruption was repeated after every incidence of haemostasis for 30 minutes. Mice were fed chow that contained 0.1 mg rivaroxaban per g of chow. The mice were on this diet for 4 days to allow them to reach a steady state. Cyclodextrins were administered by a tail vein injection 5 minutes before the start of the bleeding assay. Two parameters were measured: 1) the number of times that haemostasis occurs in a 30 minute period, and 2) the time required for each haemostasis.

[3] = tested on: plasma deficient in coagulation factor VIII; test: Thrombin generation assay in plasma deficient in coagulation factor VIII; format: biochemical, human
Procedure: FIG. 20: Plasma deficient in coagulation factor VIII was spiked with cyclodextrin OKL-1111 (A), OKL-1180 (B), and OKL-1187 (C) at the indicated concentrations.
as §2

[4] = tested on: plasma deficient in coagulation factor IX; test: Thrombin generation assay in plasma deficient in coagulation factor IX; format: biochemical, human
Procedure: as §2

[5] = tested on: thrombin generation in pooled normal plasma spiked with anticoagulants; test: Thrombin generation assay in pooled normal plasma spiked with anticoagulants; format: biochemical, human; conditions: for effect on the anticoagulant effect of apixaban: apixaban 60 ng/ml; for effect on the anticoagulant effect of apixaban / effect on the anticoagulant effect of dabigatran / effect on the anticoagulant effect of edoxaban / effect on the anticoagulant effect of rivaroxaban: cyclodextrin 100 μM, 1 pM TF; for effect on the anticoagulant effect of dabigatran: dabigatran 100 ng/ml; for effect on the anticoagulant effect of edoxaban: edoxaban 60 ng/ml; for effect on the anticoagulant effect of rivaroxaban: rivaroxaban 100 ng/ml
Procedure: as §1
FIG. 9: Pooled normal plasma was spiked with OKL-1111 (100 μM, unless otherwise indicated (A)) and anticoagulants (B-E). The concentrations of the anticoagulants were 100 ng/ml for dabigatran (B), 100 ng/ml for rivaroxaban (C), 60 ng/ml for apixaban (D), 60 ng/ml for edoxaban (E). The plasmas were subjected to thrombin generation analysis as described in the Materials and Methods section with 1 pM tissue factor (TF) as initiator of coagulation.
FIG. 10: Pooled normal plasma was spiked with OKL-1111 (100 μM) and anticoagulants (A-F). The concentrations of the anticoagulants were 2 μg/ml for fondaparinux (A), 0.4 U/ml for nadroparin (B), 0.1 U/ml for tinzaparin (C), 0.03 U/ml for unfractionated heparin (UFH) (D), 0.5 U/ml for hirudin (E) and 10 μg/ml for bivalirudin (F). The plasmas were subjected to thrombin generation analysis as described in the Materials and Methods section with 1 pM tissue factor (TF) as initiator of coagulation.
as §2

[6] = tested on: plasma of a hemophilia A patient containing anti-FVIII antibodies; test: Thrombin generation in plasma of a hemophilia A patient with anti-factor VIII antibodies; format: biochemical, human; conditions: anti-FVIII antibodies 50 BU
Procedure: FIG. 28: Effect of OKL-1111 (A), OKL-1180 (B) and OKL-1187 (C) on coagulation in plasma of a hemophilia A patient with anti-factor VIII antibodies. BU=Bethesda Units.
as §2
The patient had developed antibodies against factor VIII prior to plasma withdrawal. The plasma contained high levels of anti-FVIII antibodies (50 BU).

| Compound | procoagulant effect in normal plasma [1] | clotting times ([2]; mice fed rivaroxaban for 4 days, cyclodextrin by tail vein injection 5 min before bleeding assay, OKL-1111 dose expected to give 25 μM in plasma) | procoagulant effect in factor VIII deficient plasma [3] | procoagulant activity in factor IX deficient plasma [4] | procoagulant effect in plasma containing anticoagulants (not specified / NOACs) [5] | effect on the anticoagulant effect of apixaban [5] | effect on the anticoagulant effect of dabigatran [5] | effect on the anticoagulant effect of edoxaban [5] | effect on the anticoagulant effect of rivaroxaban [5] | thrombin generation in hemophilia A patient plasma [6] | number of clots in 30 minutes ([2]; mice fed rivaroxaban (0.1 mg per g of chow, 4 days), no cyclodextrin, non-anticoagulated about 20-25) | bleeding time ([2]; mice fed rivaroxaban versus non-anticoagulated mouse) |
| --- | --- | --- | --- | --- | --- | --- | --- | --- | --- | --- | --- | --- |
| NCC1OC2OC3C(CN)OC(OC4C(CN)OC(OC5C(CN)OC(OC6C(CN)OC(OC7C(CN)OC(OC8C(CN)OC(OC9C(CN)OC(OC1C(O)C2O)C(O)C9O)C(O)C8O)C(O)C7O)C(O)C6O)C(O)C5O)C(O)C4O)C(O)C3O (stereo not drawn) [OKL-1147, reference compound] | no procoagulant effect | without any significant effect |  |  |  |  |  |  |  |  |  |  |
| O=C(O)CCCCSCC1OC2OC3C(CSCCCCC(=O)O)OC(OC4C(CSCCCCC(=O)O)OC(OC5C(CSCCCCC(=O)O)OC(OC6C(CSCCCCC(=O)O)OC(OC7C(CSCCCCC(=O)O)OC(OC8C(CSCCCCC(=O)O)OC(OC9C(CSCCCCC(=O)O)OC(OC1C(O)C2O)C(O)C9O)C(O)C8O)C(O)C7O)C(O)C6O)C(O)C5O)C(O)C4O)C(O)C3O (stereo not drawn) [OKL-1171] | significant procoagulant activity |  | procoagulant effects |  |  |  |  |  |  |  |  |  |
| O=C(O)CCCCCCSCC1OC2OC3C(CSCCCCCCC(=O)O)OC(OC4C(CSCCCCCCC(=O)O)OC(OC5C(CSCCCCCCC(=O)O)OC(OC6C(CSCCCCCCC(=O)O)OC(OC7C(CSCCCCCCC(=O)O)OC(OC8C(CSCCCCCCC(=O)O)OC(OC9C(CSCCCCCCC(=O)O)OC(OC1C(O)C2O)C(O)C9O)C(O)C8O)C(O)C7O)C(O)C6O)C(O)C5O)C(O)C4O)C(O)C3O (stereo not drawn) [OKL-1172] | significant procoagulant activity |  | procoagulant effects | procoagulant activity |  |  |  |  |  |  |  |  |
| OCCCCSCC1OC2OC3C(CSCCCCO)OC(OC4C(CSCCCCO)OC(OC5C(CSCCCCO)OC(OC6C(CSCCCCO)OC(OC7C(CSCCCCO)OC(OC8C(CSCCCCO)OC(OC9C(CSCCCCO)OC(OC1C(O)C2O)C(O)C9O)C(O)C8O)C(O)C7O)C(O)C6O)C(O)C5O)C(O)C4O)C(O)C3O (stereo not drawn) [OKL-1174] | strong procoagulant effects |  | procoagulant effects | procoagulant activity | strong procoagulant effects |  |  |  |  |  |  |  |
| OCCCSCC1OC2OC3C(CSCCCO)OC(OC4C(CSCCCO)OC(OC5C(CSCCCO)OC(OC6C(CSCCCO)OC(OC7C(CSCCCO)OC(OC8C(CSCCCO)OC(OC1C(O)C2O)C(O)C8O)C(O)C7O)C(O)C6O)C(O)C5O)C(O)C4O)C(O)C3O (stereo not drawn) [OKL-1181] | significant procoagulant activity |  | procoagulant effects | procoagulant activity |  |  |  |  |  |  |  |  |
| O=C(O)CCCCCSCC1OC2OC3C(CO)OC(OC4C(CO)OC(OC5C(CO)OC(OC6C(CO)OC(OC7C(CO)OC(OC1C(O)C2O)C(O)C7O)C(O)C6O)C(O)C5O)C(O)C4O)C(O)C3O (stereo not drawn) [OKL-1186, Alpha-mono-S—C6-acid] | substantial procoagulant effect |  |  |  |  | antagonized | antagonized | antagonized | antagonized |  |  |  |
| O=C(O)CCCCCSCC1OC2OC3C(CSCCCCCC(=O)O)OC(OC4C(CSCCCCCC(=O)O)OC(OC5C(CSCCCCCC(=O)O)OC(OC6C(CSCCCCCC(=O)O)OC(OC7C(CSCCCCCC(=O)O)OC(OC1C(O)C2O)C(O)C7O)C(O)C6O)C(O)C5O)C(O)C4O)C(O)C3O (stereo not drawn) [OKL-1187, Alpha-per-S—C6-acid] | very strong procoagulant effect |  | procoagulant effects |  |  | strongly antagonized | strongly antagonized | strongly antagonized | strongly antagonized | concentration-dependently stimulated thrombin generation |  |  |
| O=C(O)CCCCCCSCC1OC2OC3C(CO)OC(OC4C(CO)OC(OC5C(CO)OC(OC6C(CO)OC(OC7C(CO)OC(OC8C(CO)OC(OC1C(O)C2O)C(O)C8O)C(O)C7O)C(O)C6O)C(O)C5O)C(O)C4O)C(O)C3O (stereo not drawn) [OKL-1188] | strong procoagulant effect |  | procoagulant effects | procoagulant activity |  | antagonized | antagonized | antagonized | antagonized |  |  |  |
| OCCCCSCC1OC2OC3C(CO)OC(OC4C(CO)OC(OC5C(CO)OC(OC6C(CO)OC(OC7C(CO)OC(OC8C(CO)OC(OC1C(O)C2O)C(O)C8O)C(O)C7O)C(O)C6O)C(O)C5O)C(O)C4O)C(O)C3O (stereo not drawn) [OKL-1189] | strong procoagulant activity |  | procoagulant effects | procoagulant activity |  | strongly antagonized | strongly antagonized | strongly antagonized | strongly antagonized |  |  |  |
| O=C(O)CCCCCCSCC1OC2OC3C(CO)OC(OC4C(CO)OC(OC5C(CO)OC(OC6C(CO)OC(OC7C(CO)OC(OC8C(CO)OC(OC9C(CO)OC(OC1C(O)C2O)C(O)C9O)C(O)C8O)C(O)C7O)C(O)C6O)C(O)C5O)C(O)C4O)C(O)C3O (stereo not drawn) [OKL-1190] | procoagulant effect |  |  |  |  | antagonized | antagonized | antagonized | antagonized |  |  |  |
| OCCCCSCC1OC2OC3C(CO)OC(OC4C(CO)OC(OC5C(CO)OC(OC6C(CO)OC(OC7C(CO)OC(OC8C(CO)OC(OC9C(CO)OC(OC1C(O)C2O)C(O)C9O)C(O)C8O)C(O)C7O)C(O)C6O)C(O)C5O)C(O)C4O)C(O)C3O (stereo not drawn) [OKL-1191] | Strong Procoagulant Activity |  | procoagulant effects | procoagulant activity |  | Antagonized | Antagonized | Antagonized | Antagonized |  |  |  |
| O=C(NC[C@H]1CN(c2ccc(N3CCOCC3=O)cc2)C(=O)O1)c1ccc(Cl)s1 [rivaroxaban] |  |  |  |  |  |  |  |  |  |  | 10-13 clots | roughly doubled |
